This passage reports MIC results from patent publication US4831026A, “2-oxa-isocephem compounds, compositions containing same and processes of using” (Otsuka Pharmaceutical Co., Ltd., priority 1985, dated 1989).

Where two headings read alike, the source gives them in different places.

One assay relates to E. coli NIHJ. Description: Antimicrobial activity test: MIC by the agar plate dilution method, E. coli NIHJ. Format: cell-based. As to conditions: inoculum 1×10^6 cells/ml. The method, then:
In order to investigate the in vitro activity of the under-mentioned compounds against various bacteria, the minimal inhibitory concentration (MIC) values were determined by the agar plate dilution method [see Chemotherapy, 22, 1126-1128 (1974)].
Each test inoculum was adjusted to 1×10^6 cells/ml (O.D., 600 mμ: 0.07-0.16).

A further assay relates to K. pneumoniae NCTC-9632. Description: Antimicrobial activity test: MIC by the agar plate dilution method, K. pneumoniae NCTC-9632. The assay is classed as cell-based. As to conditions: inoculum 1×10^6 cells/ml. The procedure, abridged: (§1)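 Agar plate dilution MIC against each listed strain; inocula adjusted to 1×10^6 cells/ml (O.D. 600 mμ: 0.07-0.16).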
The next assay relates to S. marcescens IFO-12648. Description: Antimicrobial activity test: MIC by the agar plate dilution method, S. marcescens IFO-12648. Format: cell-based. The procedure, abridged: as §1
A further assay has as its system P. aeruginosa NCTC-10490. Description: Antimicrobial activity test: MIC by the agar plate dilution method, P. aeruginosa NCTC-10490. Format: cell-based. Conditions: inoculum 1×10^6 cells/ml. Summed up:
as §1

In another assay the test system is S. aureus FDA-209-p. Description: Antimicrobial activity test: MIC by the agar plate dilution method, S. aureus FDA-209-p. The assay is classed as cell-based, Staphylococcus aureus. As to conditions: inoculum 1×10^6 cells/ml. The procedure, abridged:
as §1

In a further assay the test system is E. coli No. 29. Description: Antimicrobial activity test: MIC by the agar plate dilution method, E. coli No. 29. Format: cell-based. Summed up:
as §1

In the next assay the test system is P. mirabilis 1287. In words: Antimicrobial activity test: MIC by the agar plate dilution method, P. mirabilis 1287. As to conditions: P. mirabilis 1287; inoculum 1×10^6 cells/ml. The assay is classed as cell-based. The procedure, abridged:
as §1

The next assay deals with M. morganii ATCC-25830. In words: Antimicrobial activity test: MIC by the agar plate dilution method, M. morganii ATCC-25830. The assay is classed as cell-based. Conditions: inoculum 1×10^6 cells/ml. Summed up:
as §1

The mark [1] stands for this setting: E. coli No. 29, inoculum 1×10^6 cells/ml.
Setting [2] is: S. marcescens IFO-12648, inoculum 1×10^6 cells/ml.

“7-[2-(2-Aminothiazol-4-yl)-2-cyclopropvlmethyloxyiminoacetamido]-3-[(1,2,3- thiadiazol-5-yl)thiomethyl]-Δ^3 -O-2-isocephem-4-carboxylic acid (syn-isomer) [Example 57]”: the minimum inhibitory concentration (MIC) in the assay on E. coli NIHJ was 0.2 µg/mL; in the assay with K. pneumoniae NCTC-9632 it was 0.39 µg/mL; against S. marcescens IFO-12648, 0.78 µg/mL; in the assay on P. aeruginosa NCTC-10490, 0.78 µg/mL; against S. aureus FDA-209-p, 0.1 µg/mL; with E. coli No. 29 (setting [1]) it was 0.1 µg/mL. The figures for the MIC against P. mirabilis 1287 and against M. morganii ATCC-25830 were 0.1 µg/mL and 0.05 µg/mL, respectively.

Take “7-[2-(2-Aminothiazol-4-yl)-2-cyclopropylmethyloxyiminoacetamido]-3-[(1,3,4-thiadiazol-2-yl)thiomethyl]-Δ^3 -O-2-isocephem-4-carboxylic acid trifluoroacetate (syn-isomer) [No. 10]”: the MIC in the assay on E. coli NIHJ is at most 0.025 µg/mL; in the assay on K. pneumoniae NCTC-9632, 0.05 µg/mL; in the assay on S. marcescens IFO-12648 (setting [2]), 0.05 µg/mL; with P. aeruginosa NCTC-10490 it was 3.13 µg/mL; against S. aureus FDA-209-p, 0.05 µg/mL; in the assay with E. coli No. 29 (setting [1]), 0.05 µg/mL. Also, the MIC in the assay on P. mirabilis 1287 and against M. morganii ATCC-25830 was at most 0.025 µg/mL in each case.

With “7-[2-(2-Aminothiazol-4-yl)-2-ethoxyiminoacetamido]-3-[(1,3,4-thiadiazol-2-yl)thiomethyl]-Δ^3 -O-2-isocephem-4-carboxylic acid (syn-isomer) [Example 29]”, the MIC against E. coli NIHJ is at most 0.025 µg/mL; against K. pneumoniae NCTC-9632, 0.05 µg/mL; in the assay on S. marcescens IFO-12648 (setting [2]), 0.2 µg/mL; with P. aeruginosa NCTC-10490, 6.25 µg/mL; against S. aureus FDA-209-p, 0.05 µg/mL; against E. coli No. 29 (setting [1]) it was at most 0.025 µg/mL. For the same substance, the MIC with P. mirabilis 1287 and in the assay on M. morganii ATCC-25830 was at most 0.025 µg/mL each time.

As for “7-[2-(2-Aminothiazol-4-yl)-2-methoxyiminoacetamido]-3-[(1,2,3-thiadiazol-5-yl)thiomethyl]-Δ^3 -O-2-isocephem-4-carboxylic acid trifluoroacetate (syn-isomer) [No. 14]”, the MIC is at most 0.025 µg/mL against E. coli NIHJ; at most 0.025 µg/mL against K. pneumoniae NCTC-9632; 0.1 µg/mL against S. marcescens IFO-12648 (setting [2]); 1.56 µg/mL against P. aeruginosa NCTC-10490; 0.1 µg/mL against S. aureus FDA-209-p; at most 0.025 µg/mL against E. coli No. 29 (setting [1]). The MIC with P. mirabilis 1287 and against M. morganii ATCC-25830 was at most 0.025 µg/mL throughout.

“7-[2-(2-Aminothiazol-4-yl)-2-methoxyiminoacetamido]-3-[(1,3,4-thiadiazol-2-yl)thiomethyl]- Δ^33 -O-2-isocephem-4-carboxylic acid (syn-isomer) [No. 2]”: the MIC with E. coli NIHJ is 0.39 µg/mL; against K. pneumoniae NCTC-9632 it was 0.78 µg/mL; in the assay with S. marcescens IFO-12648, 0.78 µg/mL; against P. aeruginosa NCTC-10490, 3.13 µg/mL; against S. aureus FDA-209-p, 1.56 µg/mL; against E. coli No. 29 it was 0.78 µg/mL. For the same substance, the minimal inhibitory concentration (MIC) worked out at 0.1 µg/mL in the assay on P. mirabilis 1287 and 0.2 µg/mL in the assay with M. morganii ATCC-25830.

“7-[2-(2-Aminothiazol-4-yl)-2-methoxyiminoacetamido]-3-[(1,4,5,6-tetrahydro-4-methyl-5,6-dioxo-1,2,4-triazin-3-yl)thiomethyl]-Δ^3 -O-2-isocephem-4-carboxylic acid (syn-isomer) [No. 4]”: the minimal inhibitory concentration (MIC) was at most 0.025 µg/mL in the assay on E. coli NIHJ; at most 0.025 µg/mL against K. pneumoniae NCTC-9632; 0.2 µg/mL against S. marcescens IFO-12648 (setting [2]); 50 µg/mL in the assay on P. aeruginosa NCTC-10490; 0.78 µg/mL against S. aureus FDA-209-p; at most 0.025 µg/mL in the assay with E. coli No. 29 (setting [1]). Further, the minimal inhibitory concentration (MIC) against P. mirabilis 1287 and against M. morganii ATCC-25830 was at most 0.025 µg/mL each time.

In general, MIC refers to the least concentration at which growth counts as inhibited. Read a low MIC as a more susceptible organism.
